Data set [1] in a line: Lucigenin assay of Cl− transport in vesicles. It counts as biochemical. Particulars: 10 µM compound, interior NaNO3 200 mM, exterior NaCl (2 M), 0.762 mM lipid, 25°C, first-order curve fit. On the procedure:
To confirm that chloride could pass through the bilayers, lucigenin assays[5a] were performed for 2, Cu(II)[1]Cl2 and Cu(II)[2]Cl2 (Fig. 5 and ESI, Fig. S10 ^†). The same lipids were used as for the HPTS assays and lucigenin was encapsulated with NaNO3 in the vesicles.
Figure S9: Ionophoric activity determined through an HPTS assay in the presence of NaCl (100 mM) for: 2 (10 µM) in the absence (pink inverted triangles) and presence of FCCP (20 µM, blue triangles) and Cu(II)[2]Cl2 (6 µM) in the absence (red circles) and presence of FCCP (20 µM, black squares). Base pulse at 1 min, TX-100 added at 7 min.
5.4 Preparation of large unilamellar vesicles for lucigenin assays […]
Lucigenin assays procedure and fluorescence normalisation were developed by a modification of published methods.10 An aliquot of the vesicle stock solution (100 μL) w as diluted to 1.9 mL with 200 mM NaNO 3 in water (pH = 7.4) (final lipid co ncentration in cuvette 0.762 mM). […] The cuvette was then placed into a Varian Cary Eclipse fluorescence spectrophotometer in the moderate stirring mode. The fluorescence emission at 505 nm was observed, resulting from excitation at 455 nm, over a period of seven minutes (420 seconds) at 25°C. […] The change in fluorescence was followed for six minutes before final lysis of the vesicles at seven minutes (420 s) by adding an aliquot of a 10 % v/v solution of Triton X-100 […]

Data set [2] in a line: Solubility. The conditions noted are these: under the haemolysis assay conditions (blood diluted with PBS, compound added from DMSO). The data set is classed as physicochemical. The source says: Mixing 1 or 2 with CuCl2 or CuCl provided green or blue complexes respectively. […] The blue complexes from the addition of CuCl gave very broad NMR spectra even after preparing fresh samples, which was ascribed to in situ oxidation of Cu(I); Cu(I)(TPA) complexes are very efficient one electron donors and will rapidly reduce alkyl halides[27] and oxygen.[28] Furthermore these blue products gave green solids when dried (see the ESI, Fig. S2 ^†).
Although alamethicin is a very active channel former, its use in the clinic is hampered by its high haemolytic activity.[52] […] It is known that the haemolytic activity of amphipathic peptides, including alamethicin, decreases substantially on a reduction of peptide hydrophobicity and hydrophobic moment.[56]

The results in this text go back to paper PMC7481839, “Switchable foldamer ion channels with antibacterial activity” (Chemical Science, 2020).

Values after ≈ are worked out from the molar mass of the structure shown. Where a SMILES comes first, the peptide text is derived from it.

Regarding `CC(C)(NC(=O)C(C)(C)NC(=O)C(C)(C)NC(=O)C(C)(C)NC(=O)C(C)(C)n1cc(CN(Cc2ccccn2)Cc2ccccn2)nn1)C(=O)NC(C)(C)C(=O)NC(C)(C)C(=O)NC(C)(C)C(=O)OCC[Si](C)(C)C` [foldamer 2] (HELM PEPTIDE1{[CC(C)(C(=O)[*:2])n1cc(CN(Cc2ccccn2)Cc2ccccn2)nn1].[Aib].[Aib].[Aib].[Aib].[Aib].[Aib].[Aib].[C[Si](C)(C)CCO[*:1]]}$$$$V2.0), in data set [1], the “kobs of Cl− transport (lucigenin assay)” value is 0.0052 s⁻¹. For the same compound, in data set [2], the solubility limit stood at 20 µM (≈ 21.2 µg/mL).
